{"source": "patent US20150065421A1", "about": "“BASAL INSULIN THERAPY” (SANOFI, priority 2012, published 2015)", "type_in_all_cases": "in vivo, human", "key": {"[1]": {"tested_on": "people at high risk for vascular disease with either IFG, IGT, or early type 2 diabetes", "test": "ORIGIN trial: cognition outcomes (Mini-Mental Status Exam)", "description": "Defined by serial cognitive testing (e.g., mini-mental status examination [MMSE]).\nOverall, there was a strong trend (p=0.075) for glargine treatment to be associated with fewer impaired patients. The data, as summarized in Table 7, reflect the Mini-Mental Status Exam (MMSE) data for the number of participants scoring 24 or less at various timepoints (mild impairment). These patients were examined because they represent those at greater risk of further deterioration during the study, and still with enough patients to confer adequate power to make statistical comparisons. There was a significant reduction of cases of mild impairment from baseline at about 4 years."}, "[2]": {"tested_on": "people with IGT, IFG, or early diabetes", "test": "Double-blind pilot study HOE901/1021 (safety and feasibility)", "description": "The use of exogenous insulin in an IGT, IFG, or diabetic population might confer several potential metabolic and cardiovascular benefits: • 1. The fact that it is finely titratable and durable (compared to oral antidiabetic agents) may translate into a powerful effect to delay the exposure of target tissues to toxic levels of glycemia. • 2. Insulin-mediated suppression of circulating free fatty acids (FFA) will: • reduce VLDL synthesis and improve lipoprotein patterns (i.e. lower triglycerides, and increase HDL-C); • reduce lipotoxicity at the level of the beta cell and at insulin's target tissues; • reduce obligatory oxidative metabolism in ischemic myocardium. • 3. Exogenous insulin will prevent metabolic decompensation due to stress, that is either mild and frequent (i.e. daily stresses and minor illness or injury), or severe and less common (i.e. major injury, illness, surgery, vascular events). These stress events would normally suppress endogenous insulin responses even when a pharmacologic secretagogue or sensitizer is present; exogenous, injected insulin cannot be suppressed in such a way. • 4. Nitric oxide-mediated vasodilation and endothelial function are abnormal in those with IFG, IGT, or diabetes. Additionally, markers of endothelial inflammation are increased. These abnormalities are all improved by insulin treatment. […]"}, "[3]": {"tested_on": "participants without diabetes at randomization (IFG and/or IGT)", "test": "ORIGIN trial: new type 2 diabetes in participants without baseline diabetes (oral glucose tolerance tests)", "description": "Participants were asked to self-administer daily subcutaneous saline injections and to check their capillary glucose levels during a 10 day run-in period. Adherent participants were then provided with lifestyle advice and randomly allocated to either insulin glargine (Lantus™) or standard approaches to glycaemic control. Participants allocated to insulin glargine who were also taking a thiazolidinedione stopped that medication at the time of randomization; otherwise the insulin glargine was added to their glycemic regimen. These participants were instructed to inject insulin glargine in the evening, starting at 2, 4 or 6 units (depending on their initial FPG) and to increase the dose at least once per week targeting a self-measured FPG level ≦5.3 mmol/l (95 mg/dl) and ≧4 mmol/l (72 mg/dl). […] If participants developed uncontrolled hyperglycemia, investigators were permitted to add rapid-acting insulin. No other glucose-lowering medication could be added or increased. FPG levels were measured in the local laboratory at every visit and the results were regularly reviewed along with the dose of insulin to ensure that insulin was being effectively trirated. People not diagnosed with diabetes by the time of the penultimate study visit down-titrated insulin glargine by 10 units per day and stopped any metformin that was prescribed.\nThere were 2 co-primary composite CV outcomes. The first was CV death, non-fatal MI or non-fatal stroke, and the second was a composite of any of these events or a revascularization procedure or hospitalization for heart failure. Secondary outcomes included a composite microvascular outcome comprising a doubling of serum creatinine from baseline, progression of albuminuria category from normoalbuminuria or microalbuminuria to microalbuminuria or overt nephropathy, renal replacement therapy, renal death, retinal photocoagulation or vitrectomy for retinopathy. They also included new type 2 diabetes developing by the time of the 1st post-trial oral glucose tolerance test in participants without baseline diabetes, and all-cause mortality. Other outcomes included incident cancers, CV hospitalizations, and angina. Cardiovascular and cancer outcomes were reviewed by adjudicators masked to treatment allocation. Episodes of hypoglycaemia since the prior visit were recorded at each visit. Symptomatic hypoglycemia was classified as confirmed if a concomitant recorded capillary glucose level was <3 mmol/L (54 mg/dL). Severe hypoglycemia was defined as hypoglycemia that required assistance plus either prompt recovery with glucose or glucagon or a documented capillary glucose ≦2.0 (36 mg/dL). New diabetes was diagnosed if 2 consecutive FPG levels within a 4-month period were ≧7 mM (126 mg/dL) during the trial; a diagnosis of diabetes was made by a physician and a pharmacologic antidiabetic agent was being taken and there was evidence of either a FPG ≧7 mM (126 mg/dL) or any glucose value ≧11.1 mM (200 mg/dL); either 1 or more capillary glucose levels were ≧11.1 mM (200 mg/dl) and a lab-measured FPG was ≧7 mmol/l (126 mg/dl) or a lab measured random glucose level was ≧11.1 mM (200 mg/dl) during down-titration of glargine insulin; or any FPG was ≧7 mM (126 mg/dl) or 2 hour plasma glucose was ≧11.1 mM (200 mg/dl) during the first oral glucose tolerance test.\nData were analyzed using SAS (version 9.1 for Solarus) according to an intention-to-treat approach described in the protocol and a predefined statistical analysis plan. […] Baseline characteristics were summarized using means and standard deviatons, medians and interquartile ranges, or counts and percentages as appropriate. Time-to-event curves were constructed using product limit estimation and compared using stratified log-rank tests. Hazard ratios for each outcome were calculated using Cox regression models adjusted for the factorial allocation, baseline diabetes status and a history of a prior CV event before randomization as described in the protocol. […]"}}}
{"substance": "(Gly A21) Arg (B31) Arg (B32) human insulin [insulin glargine]", "values": [{"measurement": "participants scoring 24 or less in MMSE (mild impairment), N (%)", "setting": "[1]; 2 years, P 0.823 vs standard, baseline 483 (7.7)", "result": "433 (7.6) N (%)"}, {"measurement": "participants scoring 24 or less in MMSE (mild impairment), N (%)", "setting": "[1]; Any measure, P 0.075 vs standard", "result": "605 (10.4) N (%)"}, {"measurement": "participants scoring 24 or less in MMSE (mild impairment), N (%)", "setting": "[1]; End of study, P 0.358 vs standard", "result": "464 (9.6) N (%)"}, {"measurement": "participants scoring 24 or less in MMSE (mild impairment), N (%)", "setting": "[1]; ~4 years, P 0.022 vs standard", "result": "449 (9.0) N (%)"}, {"measurement": "severity of hypoglycemia episodes", "setting": "[2]; all episodes", "result": "mild"}, {"measurement": "subjects who experienced hypoglycemia", "setting": "[2]; of 13 insulin glargine subjects, two weeks, calorie-restricted diet, titrated to FPG 80-95 mg/dL", "result": "Two"}, {"measurement": "reduction of incidence of new diabetes including suspected cases", "setting": "[3]; confirmed plus suspected, unconfirmed cases", "result": 30, "unit": "%"}, {"measurement": "OR for protocol-defined new diabetes", "setting": "[3]; glargine vs standard care, 95% CI 0.58, 0.92, P=0.007", "result": 0.73}, {"measurement": "OR for new diabetes after 2nd OGTT", "setting": "[3]; glargine vs standard care, 95% CI 0.64, 1.00, P=0.052", "result": 0.80}, {"measurement": "incidence of new diabetes including suspected cases", "setting": "[3]; insulin glargine group", "result": 35, "unit": "%"}, {"measurement": "total rate of diabetes after repeated (2nd) OGTT", "setting": "[3]; insulin glargine group, median 100 days after insulin was stopped", "result": 30, "unit": "%"}, {"measurement": "participants developing protocol-defined diabetes", "setting": "[3]; insulin glargine group, up to 1st post-trial OGTT", "result": 25, "unit": "%"}, {"measurement": "less likely to develop protocol-defined diabetes than standard care participants", "setting": "[3]; up to 1st post-trial OGTT", "result": 27, "unit": "%"}]}
